{
  "source": "patent US20170136010A1",
  "about": "“ORAL SOLID PREPARATION COMPRISING ARIPIPRAZOLE AND METHOD FOR PRODUCING ORAL SOLID PREPARATION COMPRISING ARIPIPRAZOLE” (OTSUKA PHARMACEUTICAL CO., LTD, priority 2013, published 2017)",
  "type_in_all_cases": "physicochemical",
  "key": {"[1]": {"assay": "Mean particle size by laser diffraction scattering particle size distribution analyzer", "conditions": "volume mean diameter, dry", "procedure": "The term “mean particle size” refers to volume mean diameter as calculated from the particle size distribution measured by a laser scattering particle size distribution analyzer analyzer.\nThe particle size of the resulting finely milled powder of highly hygroscopic aripiprazole anhydrous crystal was measured using Dry Unit 2000, which was a laser diffraction scattering particle size distribution analyzer (Laser Micron Sizer (LMS-2000e)), and the mean particle size was calculated from the obtained measurement results. […] The measurement conditions using a laser diffraction scattering particle size distribution analyzer were as follows: Particle refractive index: 1.750, imaginary part: 0.1, and dispersive pressure: 0.15 MPa."}, "[2]": {"assay": "Hygroscopic test of finely milled powder, water content by Karl Fischer method", "conditions": "for Water content level (wt %), hygroscopic test of finely milled aripiprazole crystal, 24 hours: 60° C., humidity 100%", "procedure": "The finely milled powder obtained above was evaluated by a hygroscopic test according to the following method.\nAbout 1 g of milled powder was weighed in a weighing bottle with a diameter of 5 cm, allowed to stand in water/desiccator in which the temperature and humidity were respectively set to 60° C. and 100%, and then allowed to stand in MgCl2.6H2O saturated salt solution/desiccator having a room temperature and humidity of about 30% for 24 hours, Thereafter, the water content was measured. The water content was measured according to the Karl Fischer method by accurately measuring 0.1 g of a sample."}, "[3]": {"assay": "Hygroscopic test of aripiprazole anhydrous crystal, water content by Karl Fischer coulometric titration", "conditions": "for Water content level (wt %) after humidification: after 24 hours at 60° C. in desiccator including water; for Water content level (wt %) before humidification: before hygroscopic test", "procedure": "About 1 g of aripiprazole obtained in the Synthesis Example was weighed in each of the weighing bottles having a diameter of about 5 cm. Each of the bottles was sealed with Kimwipe, and allowed to stand in a desiccator including water. The desiccator was placed in an oven at 60° C., and allowed to stand for 24 hours.\nThe weighing bottles were removed from the desiccator, and allowed to stand for 16 hours or more in a desiccator (room temperature/about 30% RH) including an MgCl2/6H2O saturated salt solution, thereby removing attached excess water. The water contents of the samples before and after the hygroscopic test were measured according to the following test procedure.\n0.1 g of the aripiprazole obtained in the Synthesis Example and 0.1 g of the aripiprazole obtained after the hygroscopic test were accurately weighed. Using a moisture meter (CA-200) produced by Mitsubishi Chemical Analytech Co., Ltd., a test was performed according to the coulometric titration method, which is a water content measurement method (Karl Fischer method)."}},
  "data": [
    {"smiles": "O=C1CCc2ccc(OCCCCN3CCN(c4cccc(Cl)c4Cl)CC3)cc2N1", "note": "[compound 4, 7-{4-[4-(2,3-dichlorophenyl)-1-piperazinyl]butoxy}-3,4-dihydrocarbostyril]", "values": [
      {"measurement": "Mean particle size", "setting": "[1]", "result": 9.6, "unit": "μm"},
      {"measurement": "Water content level (wt %), hygroscopic test of finely milled aripiprazole crystal, 0 hour", "setting": "[2]", "result": 0.29, "unit": "wt %"},
      {"measurement": "Water content level (wt %), hygroscopic test of finely milled aripiprazole crystal, 24 hours", "setting": "[2]", "result": 3.90, "unit": "wt %"}
    ]},
    {"smiles": "O=C1CCc2ccc(OCCCCN3CCN(c4cccc(Cl)c4Cl)CC3)cc2N1", "note": "[Lot No. 1, 7-{4-[4-(2,3-dichlorophenyl)-1-piperazinyl]butoxy}-3,4-dihydrocarbostyril]", "values": [
      {"measurement": "Water content level (wt %) after humidification", "setting": "[3]", "result": 0.809, "unit": "wt %"},
      {"measurement": "Water content level (wt %) before humidification", "setting": "[3]", "result": 0.003, "unit": "wt %"}
    ]},
    {"smiles": "O=C1CCc2ccc(OCCCCN3CCN(c4cccc(Cl)c4Cl)CC3)cc2N1", "note": "[compound 3, 7-{4-[4-(2,3-dichlorophenyl)-1-piperazinyl]butoxy}-3,4-dihydrocarbostyril]", "values": [
      {"measurement": "Mean particle size", "setting": "[1]", "result": 8.9, "unit": "μm"},
      {"measurement": "Water content level (wt %), hygroscopic test of finely milled aripiprazole crystal, 0 hour", "setting": "[2]", "result": 0.24, "unit": "wt %"},
      {"measurement": "Water content level (wt %), hygroscopic test of finely milled aripiprazole crystal, 24 hours", "setting": "[2]", "result": 3.97, "unit": "wt %"}
    ]},
    {"smiles": "O=C1CCc2ccc(OCCCCN3CCN(c4cccc(Cl)c4Cl)CC3)cc2N1", "note": "[Reference Example 1, 7-{4-[4-(2,3-dichlorophenyl)-1-piperazinyl]butoxy}-3,4-dihydrocarbostyril]", "values": [
      {"measurement": "Mean particle size", "setting": "[1]", "result": 2.6, "unit": "μm"},
      {"measurement": "Water content level (wt %), hygroscopic test of finely milled aripiprazole crystal, 0 hour", "setting": "[2]", "result": 0.10, "unit": "wt %"},
      {"measurement": "Water content level (wt %), hygroscopic test of finely milled aripiprazole crystal, 24 hours", "setting": "[2]", "result": 3.37, "unit": "wt %"}
    ]},
    {"smiles": "O=C1CCc2ccc(OCCCCN3CCN(c4cccc(Cl)c4Cl)CC3)cc2N1", "note": "[compound 2, 7-{4-[4-(2,3-dichlorophenyl)-1-piperazinyl]butoxy}-3,4-dihydrocarbostyril]", "values": [
      {"measurement": "Mean particle size", "setting": "[1]", "result": 5.1, "unit": "μm"},
      {"measurement": "Water content level (wt %), hygroscopic test of finely milled aripiprazole crystal, 0 hour", "setting": "[2]", "result": 0.21, "unit": "wt %"},
      {"measurement": "Water content level (wt %), hygroscopic test of finely milled aripiprazole crystal, 24 hours", "setting": "[2]", "result": 3.69, "unit": "wt %"}
    ]},
    {"smiles": "O=C1CCc2ccc(OCCCCN3CCN(c4cccc(Cl)c4Cl)CC3)cc2N1", "note": "[Lot No. 2, 7-{4-[4-(2,3-dichlorophenyl)-1-piperazinyl]butoxy}-3,4-dihydrocarbostyril]", "values": [
      {"measurement": "Water content level (wt %) after humidification", "setting": "[3]", "result": 2.759, "unit": "wt %"},
      {"measurement": "Water content level (wt %) before humidification", "setting": "[3]", "result": 0.032, "unit": "wt %"}
    ]}
  ]
}
